Experimental data: article PMC4593063 (Bioorganic & medicinal chemistry letters, 2015)

Key:
[1] = 19F NMR hydration study in aqueous solution; assay type: physicochemical; details: pH 7.7, 24 h
[2] = tested on: susceptible (G3) strain adult An. gambiae; assay: tarsal contact toxicity, WHO treated paper protocol; assay type: in vivo, Anopheles gambiae; details: 40% mortality at 1000 μg/mL vs propoxur LC50 39 μg/mL
An. gambiae [3] = assay: fumigation toxicity assay; design: species or system Anopheles gambiae; details: in vivo
WT AgAChE = WT AgAChE (Anopheles gambiae, UniProt Q869C3); assay: modified Ellman assay, WT AgAChE inhibition; assay type: biochemical
G119S AgAChE [4] = assay type: biochemical, Anopheles gambiae; details: 5g: 60 min incubation; dichlorvos: time not stated
An. gambiae [5] = assay: injection toxicity; assay type: in vivo, Anopheles gambiae; details: injection into mosquito thorax
[6] = evaporative weight loss at room temperature; assay type: physicochemical; details: open 1 dram vial, fume hood
G119S AgAChE [7] = molecular target: G119S AgAChE (Anopheles gambiae, UniProt Q869C3, G280S); assay type: biochemical; details: 60 min incubation

Compound: CC(C)(C)c1cccc(C(=O)C(F)(F)F)c1 [Compound 5c]
- % hydrated (19F NMR) [1]: 88%

Compound: CCC(CC)n1cc(C(=O)C(F)(F)F)cn1 [Compound 5g]
- tarsal contact toxicity fold lower relative to propoxur [2]: ~ 25 fold
- fumigation toxicity fold less than dichlorvos (An. gambiae [3]): > 100 fold
- potency at WT AgAChE fold greater than dichlorvos (WT AgAChE): 100 fold
- % hydrated (19F NMR) [1]: 67%
- ratio of G119S and WT AgAChE IC50 values (G119S AgAChE [4]): roughly 2,500 fold
- Injection mortality at 50 ng/insect (An. gambiae [5]): 83 ± 6%
- % mass lost by evaporation ([6]; 1 day): 9 ± 1%
- % mass lost by evaporation ([6]; 6 days): 33 ± 1%
- % mass lost by evaporation ([6]; 12 days): 68 ± 1%
- % mass lost by evaporation ([6]; 28 days): 99 ± 1%

Compound: CCC(CC)n1cc(C(=O)C(F)F)cn1 [Compound 9g]
- WT AgAChE inhibition (IC50) as summarised in text (WT AgAChE; incubation time not specified): single digit nanomolar
- G119S AgAChE IC50 fold lower than that of dichlorvos (G119S AgAChE [7]): 2 fold
- G119S AgAChE IC50 fold lower than that of trifluoromethyl ketone 5g (G119S AgAChE [7]): 13 fold
- Injection mortality at 50 ng/insect (An. gambiae [5]): 65 ± 4%

Compound: CC(C)Cn1cc(C(=O)C(F)F)cn1 [Compound 9i]
- % hydrated (19F NMR) [1]: 22%

Compound: CCC(CC)n1cc(C(=O)CF)cn1 [Compound 10g]
- WT AgAChE IC50 fold higher than that of propoxur (WT AgAChE; 10 minute incubation time): roughly 2 fold
- Injection mortality at 50 ng/insect (An. gambiae [5]): 21 ± 8%

Compound: CC(C)Cn1cc(C(=O)CF)cn1 [Compound 10i]
- % hydrated (19F NMR) [1]: < 5%

Compound: COP(=O)(OC)OC=C(Cl)Cl [dichlorvos]
- % mass lost by evaporation ([6]; 1 day): 2 ± 1%
- % mass lost by evaporation ([6]; 6 days): 16 ± 1%
- % mass lost by evaporation ([6]; 12 days): 32 ± 1%
- % mass lost by evaporation ([6]; 28 days): 51 ± 1%

Compound: CNC(=O)Oc1ccccc1OC(C)C [propoxur]
- Injection LD50 (An. gambiae [5]; 95% confidence interval in parenthesis): 0.24 (0.20–0.34) ng/insect
- % mass lost by evaporation ([6]; 1 day): 0 ±1%
- % mass lost by evaporation ([6]; 6 days): 0 ± 1%
- % mass lost by evaporation ([6]; 12 days): 1 ± 1%
